From patent US20230002359A1, “PESTICIDALLY ACTIVE FUSED BICYCLIC HETEROAROMATIC COMPOUNDS” (priority 2019, published 2023)

Legend:
Assay type in all cases: in vivo
[1] = system: Euschistus heros (Neotropical Brown Stink Bug); test: Example B2: Euschistus heros (neotropical brown stink bug), soybean leaves sprayed, N2 nymphs; details: 120 h, application rate of 200 ppm, 5 days after infestation, N2 nymphs, read-out: control in at least one of the two categories (mortality or growth inhibition)
Procedure: Soybean leaves on agar in 24-well microtiter plates were sprayed with aqueous test solutions prepared from 10′000 ppm DMSO stock solutions. After drying the leaves were infested with N2 nymphs. The samples were assessed for mortality and growth inhibition in comparison to untreated samples 5 days after infestation.

[2] = system: Spodoptera littoralis (Egyptian Cotton Leaf Worm); test: Example B7: Spodoptera littoralis (Egyptian cotton leaf worm), cotton leaf discs sprayed, L1 larvae; details: foliar, 72 h, application rate of 200 ppm, 3 days after infestation, L1 larvae, read-out: control in at least one of the three categories (mortality, anti-feedant effect, or growth inhibition)
Procedure, shortened: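 Leaf discs on agar sprayed with aqueous dilutions of 10′000 ppm DMSO stocks, dried, then infested with five L1 larvae. Mortality, anti-feeding and growth inhibition scored versus untreated 3 days after infestation; control given when any category exceeds untreated.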

[3] = system: Myzus persicae (Green Peach Aphid); test: Example B5: Myzus persicae (green peach aphid) feeding/contact activity, sunflower leaf discs; details: foliar, 144 h, application rate of 200 ppm, 6 days after infestation
Procedure: Sunflower leaf discs were placed onto agar in a 24-well microtiter plate and sprayed with aqueous test solutions prepared from 10′000 ppm DMSO stock solutions. After drying, the leaf discs were infested with an aphid population of mixed ages. The samples were assessed for mortality 6 days after infestation.

[4] = system: Myzus persicae (Green Peach Aphid); test: Example B6: Myzus persicae (green peach aphid) intrinsic activity, sucrose solution; details: 120 h, test rate of 12 ppm, 5 days after infestation, intrinsic activity, read-out: mortality
Procedure, shortened: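 Compounds from 10′000 ppm DMSO stocks were mixed into sucrose solution in 24-well plates sealed with Parafilm. Aphid-infested pea seedlings were set on the membrane and the plate inverted so aphids fed through it. Mortality scored 5 days after infestation.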

[5] = system: Chilo suppressalis (Striped Rice Stemborer); test: Example B3: Chilo suppressalis (striped rice stemborer), artificial diet, L2 larvae; details: 144 h, application rate of 200 ppm, 6 days after infestation, L2 larvae, read-out: control in at least one of the three categories (mortality, anti-feedant effect, or growth inhibition)
Procedure, shortened: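 Artificial diet in wells was treated with aqueous test solutions diluted from 10'000 ppm DMSO stocks, dried, then infested with 6-8 L2 larvae per well. Mortality, anti-feeding effect and growth inhibition were scored against untreated samples 6 days after infestation; control means any category exceeds the untreated sample.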

[6] = system: Plutella xylostella (Diamond Back Moth); test: Example B4: Plutella xylostella (diamond back moth), artificial diet, eggs, 24-well; details: 192 h, application rate of 200 ppm, 8 days after infestation, eggs, read-out: control in at least one of the two categories (mortality or growth inhibition)
Procedure: 24-well microtiter plates with artificial diet were treated with aqueous test solutions prepared from 10′000 ppm DMSO stock solutions by pipetting. After drying, Plutella eggs were pipetted through a plastic stencil onto a gel blotting paper and the plate was closed with it. The samples were assessed for mortality and growth inhibition in comparison to untreated samples 8 days after infestation.

[7] = system: Diabrotica Balteata (Corn Root Worm); test: Example B1: Diabrotica balteata (corn root worm), maize sprouts sprayed, L2 larvae; details: 96 h, application rate of 200 ppm, 4 days after infestation, L2 larvae, read-out: control in at least one of the two categories (mortality or growth inhibition)
Procedure, shortened: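 Read-out is mortality plus growth inhibition relative to untreated controls, assessed 4 days after infestation. Sprouts resting on agar are sprayed with aqueous solutions derived from 10′000 ppm DMSO stocks and left to dry before L2 larvae (6 to 10 per well) are added.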

CCN(c1ncnc2c(C(F)(F)F)cc(C(F)(F)F)cc12)[C@@H](C)c1ncnn1-c1ccc(C#N)cn1 [P.168, 6-[5-[(1S)-1-[[6,8-bis(trifluoromethyl)quina-zolin-4-yl]-ethyl-amino]ethyl]-1,2,4-triazol-1-yl]pyridine-3-carbonitrile]
≥ 80%: percent control (mortality or growth inhibition) at 200 ppm [1] | percent control (mortality, anti-feedant effect or growth inhibition) at 200 ppm [2] | mortality at 200 ppm [3] | mortality at 12 ppm [4] | percent control (mortality, anti-feedant effect or growth inhibition) at 200 ppm [5] | percent control (mortality or growth inhibition) at 200 ppm [6] | percent control (mortality or growth inhibition) at 200 ppm [7]

C[C@@H](c1ncnn1-c1ccc(C#N)cn1)N(C)c1ncnc2c(C(=O)C3CC3)cc(C(F)(F)F)cc12 [P.227, 6-[5-[(1S)-1-[[8-(cyclopropanecarbonyl)-6-(trifluoromethyl)quinazolin-4-yl]-methyl-amino]ethyl]-1,2,4-triazol-1-yl]pyridine-3-carbonitrile]
≥ 80%: percent control (mortality or growth inhibition) at 200 ppm [1] | percent control (mortality, anti-feedant effect or growth inhibition) at 200 ppm [2] | mortality at 200 ppm [3] | mortality at 12 ppm [4] | percent control (mortality, anti-feedant effect or growth inhibition) at 200 ppm [5] | percent control (mortality or growth inhibition) at 200 ppm [6] | percent control (mortality or growth inhibition) at 200 ppm [7]

CC(c1ncnn1-c1ncccn1)N(C)c1ncnc2c(C(F)(F)F)cc(C(F)(F)F)cc12 (centres unmarked) [P.27, N-methyl-N-[1-(2-pyrimidin-2-yl-1,2,4-triazol-3-yl)ethyl]-6,8-bis(trifluoromethyl)quinazolin-4-amine]
≥ 80%: percent control (mortality or growth inhibition) at 200 ppm [1] | percent control (mortality, anti-feedant effect or growth inhibition) at 200 ppm [2] | mortality at 200 ppm [3] | mortality at 12 ppm [4] | percent control (mortality, anti-feedant effect or growth inhibition) at 200 ppm [5] | percent control (mortality or growth inhibition) at 200 ppm [6] | percent control (mortality or growth inhibition) at 200 ppm [7]

C[C@@H](c1ncnn1-c1ccc(C#N)cn1)N(CC1CC1)c1ncnc2c(C(F)(F)F)cc(Cl)cc12 [P.264, 6-[5-[(1S)-1-[[6-chloro-8-(trifluoromethyl)quinazolin-4-yl]-(cyclopropylmethyl)amino]ethyl]-1,2,4-triazol-1-yl]pyridine-3-carbonitrile]
≥ 80%: percent control (mortality or growth inhibition) at 200 ppm [1] | percent control (mortality, anti-feedant effect or growth inhibition) at 200 ppm [2] | mortality at 200 ppm [3] | mortality at 12 ppm [4] | percent control (mortality, anti-feedant effect or growth inhibition) at 200 ppm [5] | percent control (mortality or growth inhibition) at 200 ppm [6] | percent control (mortality or growth inhibition) at 200 ppm [7]

C[C@@H](c1ncnn1-c1ccc(C#N)cn1)N(C)c1ncnc2c(I)cc(C(F)(F)F)cc12 [P.228, 6-[5-[(1S)-1-[[8-iodo-6-(trifluoromethyl)quinazolin-4-yl]-methyl-amino]ethyl]-1,2,4-triazol-1-yl]pyridine-3-carbonitrile]
≥ 80%: percent control (mortality or growth inhibition) at 200 ppm [1] | percent control (mortality, anti-feedant effect or growth inhibition) at 200 ppm [2] | mortality at 200 ppm [3] | mortality at 12 ppm [4] | percent control (mortality, anti-feedant effect or growth inhibition) at 200 ppm [5] | percent control (mortality or growth inhibition) at 200 ppm [6] | percent control (mortality or growth inhibition) at 200 ppm [7]

CC(c1ncnn1-c1ccc(C#N)cn1)N(C)c1ncnc2c(C(F)(F)F)cc(OC(F)(F)F)cc12 (centres unmarked) [P.221, 6-[5-[1-[methyl-[6-(trifluoromethoxy)-8-(trifluoromethyl)quinazolin-4-yl]amino]ethyl]-1,2,4-triazol-1-yl]pyridine-3-carbonitrile]
≥ 80%: percent control (mortality or growth inhibition) at 200 ppm [1] | percent control (mortality, anti-feedant effect or growth inhibition) at 200 ppm [2] | mortality at 200 ppm [3] | mortality at 12 ppm [4] | percent control (mortality, anti-feedant effect or growth inhibition) at 200 ppm [5] | percent control (mortality or growth inhibition) at 200 ppm [6] | percent control (mortality or growth inhibition) at 200 ppm [7]

C[C@H](c1ncnn1-c1ccc(C#N)cn1)N(C)c1ncnc2c(C(F)(F)F)cc(Br)cc12 [P.203, 6-[5-[(1R)-1-[[6-bromo-8-(trifluoromethyl)quinazolin-4-yl]-methyl-amino]ethyl]-1,2,4-triazol-1-yl]pyridine-3-carbonitrile]
≥ 80%: percent control (mortality or growth inhibition) at 200 ppm [1] | percent control (mortality, anti-feedant effect or growth inhibition) at 200 ppm [2] | mortality at 200 ppm [3] | mortality at 12 ppm [4] | percent control (mortality, anti-feedant effect or growth inhibition) at 200 ppm [5] | percent control (mortality or growth inhibition) at 200 ppm [6] | percent control (mortality or growth inhibition) at 200 ppm [7]

C[C@@H](c1ncnn1-c1ncccn1)N(C)c1ncnc2c(C(F)(F)F)cc(Cl)cc12 [P.23, 6-chloro-N-methyl-N-[(1S)-1-(2-pyrimidin-2-yl-1,2,4-triazol-3-yl)ethyl]-8-(trifluoromethyl)quinazolin-4-amine]
≥ 80%: percent control (mortality or growth inhibition) at 200 ppm [1] | percent control (mortality, anti-feedant effect or growth inhibition) at 200 ppm [2] | mortality at 200 ppm [3] | mortality at 12 ppm [4] | percent control (mortality, anti-feedant effect or growth inhibition) at 200 ppm [5] | percent control (mortality or growth inhibition) at 200 ppm [6] | percent control (mortality or growth inhibition) at 200 ppm [7]

C[C@@H](c1ncnn1-c1ccc(C#N)cn1)N(C)c1ncnc2c(SC(F)(F)F)cc(C(F)(F)F)cc12 [P.215, 6-[5-[(1S)-1-[methyl-[6-(trifluoromethyl)-8-(trifluoromethylsulfanyl)quinazolin-4-yl]amino]ethyl]-1,2,4-triazol-1-yl]pyridine-3-carbonitrile]
≥ 80%: percent control (mortality or growth inhibition) at 200 ppm [1] | percent control (mortality, anti-feedant effect or growth inhibition) at 200 ppm [2] | mortality at 200 ppm [3] | mortality at 12 ppm [4] | percent control (mortality, anti-feedant effect or growth inhibition) at 200 ppm [5] | percent control (mortality or growth inhibition) at 200 ppm [6] | percent control (mortality or growth inhibition) at 200 ppm [7]

C[C@@H](c1ncnn1-c1ncccn1)N(CC1CC1)c1ncnc2c(C(F)(F)F)cc(Cl)cc12 [P.265, 6-chloro-N-(cyclopropylmethyl)-N-[(1S)-1-(2-pyrimidin-2-yl-1,2,4-triazol-3-yl)ethyl]-8-(trifluoromethyl)quinazolin-4-amine]
≥ 80%: percent control (mortality or growth inhibition) at 200 ppm [1] | percent control (mortality, anti-feedant effect or growth inhibition) at 200 ppm [2] | mortality at 200 ppm [3] | mortality at 12 ppm [4] | percent control (mortality, anti-feedant effect or growth inhibition) at 200 ppm [5] | percent control (mortality or growth inhibition) at 200 ppm [6] | percent control (mortality or growth inhibition) at 200 ppm [7]

C[C@@H](c1ncnn1-c1ncccn1)N(C)c1ncnc2c(C(F)(F)C3CC3)cc(C(F)(F)F)cc12 [P.201, 8-[cyclopropyl(difluoro)meth-yl]-N-methyl-N-[(1S)-1-(2-pyrimidin-2-yl-1,2,4-triazol-3-yl)ethyl]-6-(trifluoromethyl)quinazolin-4-amine]
≥ 80%: percent control (mortality or growth inhibition) at 200 ppm [1] | percent control (mortality, anti-feedant effect or growth inhibition) at 200 ppm [2] | mortality at 200 ppm [3] | mortality at 12 ppm [4] | percent control (mortality, anti-feedant effect or growth inhibition) at 200 ppm [5] | percent control (mortality or growth inhibition) at 200 ppm [6] | percent control (mortality or growth inhibition) at 200 ppm [7]
